Patent US20080125475A1 (priority 2006, published 2008)
Like-named read-outs stand apart in the source and are kept apart here.

Columns and labels:
Sprague-Dawley rats [1] = experiment: animal or person; type: in vivo; details: Rattus norvegicus, iv, read-out: ED50 acute
Sprague-Dawley rats [2] = experiment: animal or person; type: in vivo, rat; details: iv
ORL1 receptor = target: T1, ORL1 receptor (Homo sapiens, UniProt P41146); experiment: biochemical; type: binding
T1 construct: expressed in transfected cells; host or cells: CHO (recombinant CHO-ORL1 cells), membranes

mice = details: mouse, in vivo

T1 sequence (P41146 whole entry): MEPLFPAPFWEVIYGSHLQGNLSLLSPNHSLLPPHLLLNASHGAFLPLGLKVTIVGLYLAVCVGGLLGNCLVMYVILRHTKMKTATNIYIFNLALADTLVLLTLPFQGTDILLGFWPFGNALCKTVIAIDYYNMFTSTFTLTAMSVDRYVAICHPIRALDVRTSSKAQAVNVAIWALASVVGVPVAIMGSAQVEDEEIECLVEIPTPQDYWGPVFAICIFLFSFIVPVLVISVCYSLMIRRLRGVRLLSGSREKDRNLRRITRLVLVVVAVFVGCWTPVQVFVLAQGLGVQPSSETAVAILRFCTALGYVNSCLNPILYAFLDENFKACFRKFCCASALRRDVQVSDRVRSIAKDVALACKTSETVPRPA

`CCC(=O)C(C[C@@H](C)N(C)C)(c1ccccc1)c1ccccc1` [Compound B7, L-methadone] was tested, and the ED50 (Sprague-Dawley rats [1]) was 0.21 mg/kg, the ED50 (Sprague-Dawley rats [2]; Rattus norvegicus, read-out: ED50 chronic) was 0.49 mg/kg and the “Enhancement of action factor” value (Sprague-Dawley rats [2]; rat, in vivo) was 0.4x. The Ki (ORL1 receptor) was over 1000 nM and the naloxone-induced withdrawal jumping (mice) was “reduced in comparison with B1-B4 but is still significant”.
